Data taken from patent US20070037253A1, “Methods and compositions for treatment of arthritis and cancer” (priority 2003, published 2007).
Entries after “also recorded” stand apart in the source; their conditions may differ. Where a SMILES comes first, the peptide text is derived from it.

How the values were obtained:
[1] = target: T1, MMP-1, secreted from IL-1 β-stimulated rabbit synovial fibroblasts (Oryctolagus cuniculus, UniProt P13943); assay: Secreted MMP-1 activity of IL-1β-stimulated rabbit synovial fibroblasts; assay type: cell-based
T1 construct: endogenous in cells; host or cells: HIG-82 rabbit fibroblast-like synoviocytes (ATCC CRL-1832)
T1 sequence (P13943 99-468): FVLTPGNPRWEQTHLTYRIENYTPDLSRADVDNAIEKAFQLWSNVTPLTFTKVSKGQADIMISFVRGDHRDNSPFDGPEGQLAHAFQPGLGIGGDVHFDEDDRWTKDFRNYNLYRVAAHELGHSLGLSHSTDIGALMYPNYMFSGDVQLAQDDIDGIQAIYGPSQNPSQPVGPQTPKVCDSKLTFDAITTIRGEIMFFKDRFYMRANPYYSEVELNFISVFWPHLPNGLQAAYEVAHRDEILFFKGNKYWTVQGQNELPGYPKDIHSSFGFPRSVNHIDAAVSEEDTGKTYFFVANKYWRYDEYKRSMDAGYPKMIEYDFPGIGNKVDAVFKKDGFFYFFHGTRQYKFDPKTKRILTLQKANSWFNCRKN
Description: FLSC culture and inhibition of extracellular MMP activity: All experiments were performed on HIG-82 rabbit fibroblast-like synoviocytes (FLSCs) obtained from American Type Culture Collection (Manassas, Va.; catalogue No. CRL-1832). FLSCs were grown in Ham's F-12 medium containing 10% fetal bovine serum (FBS) and 1% penicillin/streptomycin, as recommended by the supplier. For experimental purposes, FLSCs were seeded into 12-well plates, grown to near confluence, and then serum starved (Ham's F-12 without FBS or penicillin/streptomycin) for 16 h. After serum starvation of FLSCs, supernatants were removed and replaced with fresh Ham's F-12 medium for 60 min at 37° C./5% CO2 before incubation for 2 h with various concentrations (1-10 μM) of test inhibitor peptides: P-NT.II, PIP [59-67] monomer and dimer. FLSCs were then stimulated for 24 h with IL-1β (10 ng/mL), and the supernatants concentrated by centrifugation in Centricon centrifugal filter devices (M.W. cutoff 30,000) for 35 min at 5000 rpm at 4° C. After activation with APMA (1 mM final concentration), the samples were measured for MMP-1 activity using BIOMOL AK-404 QuantiZyme Assay system, and for MMP-2 and -9 activities by gelatin zymography.

[2] = target: T2, purified human synovial sPLA2 (human Type IIA sPLA2) (Homo sapiens, UniProt P14555); assay: sPLA2 inhibition, 3H-arachidonate-labelled E. coli membrane assay; assay type: biochemical; conditions: fixed peptide concentration (5 μM); 3H-labelled E. coli membrane assay; read-out: % Inhibition (mean ± SD)
T2 construct: purchased Cayman Chemicals, USA
T2 sequence (P14555 21-144): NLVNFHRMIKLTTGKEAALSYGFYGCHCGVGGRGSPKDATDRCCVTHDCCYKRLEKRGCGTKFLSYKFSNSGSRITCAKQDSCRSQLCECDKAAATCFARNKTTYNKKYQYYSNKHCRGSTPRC
Description: In brief, [^3H] arachidonate-labeled E. coli membranes (0.005 mCi/mL; 5.8 μCi/μmol, NEN) were used as substrate, and 100 mM Tris-HCl—25 mM CaCl2, pH 7.5 solution as an assay buffer. The reaction mixture contained 20 μL of substrate, 0.85 pmole of purified human synovial sPLA2 (human Type IIA sPLA2, Cayman Chemicals, USA), and an increasing concentrations of the family of synthetic peptides derived from the sequence of PIP. The final volume of the reaction mixture was adjusted to 250 μL with an assay buffer. After incubation of the mixture (37° C., 1 h) and termination of the reaction with 750 μL of chilled PBS containing 1% BSA, microfuge tubes containing the samples were centrifuged (10,000 g at 4° C. for 15 min), and 500 μL aliquots of the supernatant taken to measure the amount of [^3H]-labeled arachidonate released from the E. coli membrane using liquid scintillation counting (Multipurpose Scintillation Counter LS 6500; Beckman, USA). As controls, sPLA2 was pre-incubated with the assay buffer alone. All samples, including controls, were performed in triplicate and plotted as the percentage inhibition relative to negative controls.
A sigmoid dose response curve was generated to allow calculation of the IC50 values. All samples were performed in triplicate. Results were analyzed by nonlinear regression with GraphPad Prism (version 2.01) and expressed as the percentage of inhibition relative to control values.

MMP-9 gene transcript = assay: QRT-PCR relative mRNA expression in IL-1β-stimulated rabbit synovial fibroblasts; assay type: cell-based
Excerpt: (§1) FIG. 5 is a view of the effect of peptide on the relative expression of MMP and sPLA2 genes. QRT-PCR was used for assessing relative mRNA expression levels of IL-1β-stimulated rabbit synovial fibroblast cells in the presence and absence of the candidate lead peptide PIP [59-67] dimer. The amount of each mRNA was obtained by quantitative RT-PCR. The relative levels of gene expression were normalized to the housekeeping gene (GAPDH). […] Values are expressed as ±S.E.
(§2) RNA isolation of cultured FLSCs: FLSCs were grown to 80% confluence on 12-well culture dishes and starved in a serum-free medium with 5 μM PIP [59-67] dimer for 2 h. The cells were then stimulated with 5 ng/mL IL-1β (Recombinant human, Chemicon, USA.) for 24 h, washed with cold PBS and total RNA isolated from peptide-treated (n=3) and untreated (n=3) FLSCs using RNeasy® mini kit. The RNA samples were subsequently treated with RNase-free Dnase-I at room temperature for 20 min and stored at −80° C. until use. The quality and quantity of extracted RNA was determined by spectrophotometry (Bio-Rad, USA). All RNA samples used for QRT-PCR experiments were of highest purity with A260/A280 ratios of 1.9-2.1. The integrity and relative contamination with residual genomic DNA was assessed by 1% denaturing agarose gel electrophoresis.
(§3) Quantitative Real Time RT-PCR (LightCycler): Quantitative fluorescence-based real-time PCR was carried out according to the manufacturer's instructions using the LightCycler system with LightCycler FastStart DNA Master^PLUS SYBR Green I kit (Roche Diagnostics, Germany) as an independent method for assessing relative gene expression. Reverse Transcription (RT) of RNA and QRT-PCR were performed as follows: single stranded cDNA was generated from 3 μg of total RNA, 200 μM nucleotides, 500 units Superscript II reverse transcriptase (Invitrogen) and 1.5 μM oligo(dT)15 primers in 50 μL reactions. Reverse transcription was stopped after 1 hr by heating to 95° C. for 5 min. The primers were designed by Primer3 software: http://bioinformatics.weizmann.ac.il/cgi-bin/primer/primer3.cgi and subsequently checked for specificity using BLAST: http://www.ncbi.nlm.nih.gov/genome/seq/HsBlast.htmL. All primers and probes were synthesized by 1st BASE Pvt. Ltd., Singapore. The expression of GAPDH was used as an internal calibrator for equal RNA loading and to normalize relative expression data for all other genes analyzed. The copy ratio of each analyzed cDNA was determined as the mean of 3 experiments. The real-time quantitative RT-PCR data were quantified using relative quantification (2^−ΔΔCT) method as described [Livak, K. J, and Schmittgen, T. D. (2001) Analysis of relative gene expression data using real-time quantitative PCR and the 2(-Delta Delta C(T)) method.

sPLA2 gene transcript = assay: as above; assay type: cell-based
Excerpt: as §1, §2, §3

TIMP-1 gene transcript = assay: as above; assay type: cell-based; conditions: 5 μM peptide, IL-1β-induced
Excerpt: as §1, §2, §3

MMP-1 gene transcript = assay: as above; assay type: cell-based
Excerpt: as §1, §2, §3

MMP-2 gene transcript = assay: as above; assay type: cell-based
Excerpt: as §1, §2, §3

TIMP-2 gene = assay: as above; assay type: cell-based; conditions: co-treatment with peptide, IL-1β-induced, normalized to GAPDH
Excerpt: as §1, §2, §3

[3] = 5 μM peptide, IL-1β-induced, normalized to GAPDH
[4] = IL-1β-stimulated rabbit synovial fibroblasts in culture

Compound: CC[C@H](C)[C@H](NC(=O)[C@H](CC(=O)O)NC(=O)[C@@H](N)C(C)C)C(=O)N[C@@H](Cc1c[nH]cn1)C(=O)N[C@H](C(=O)N[C@@H](Cc1c[nH]c2ccccc12)C(=O)N[C@@H](CC(=O)O)C(=O)NCC(=O)N[C@H](C(=O)N[C@H](C(=O)N[C@@H](CC(=O)O)C(=O)N[C@H](C(=O)N[C@@H](Cc1c[nH]cn1)C(=O)N[C@H](C(=O)N[C@@H](Cc1c[nH]c2ccccc12)C(=O)N[C@@H](CC(=O)O)C(=O)NCC(=O)N[C@H](C(=O)O)C(C)C)C(C)C)[C@@H](C)CC)C(C)C)C(C)C)C(C)C [PIP [59-67] dimer] (H-VDIHVWDGVVDIHVWDGV-OH; N-terminus and C-terminus assumed)
- enzyme activity of secreted MMP-1 [1]: markedly inhibited
- inhibition at 5 µM [2]: 74.5 ± 4.21%
- MMP-9 mRNA expression level (MMP-9 gene transcript; [3]): significantly inhibited; also recorded: significantly suppressed
- decrease of MMP-9 mRNA expression (MMP-9 gene transcript; [4]): > 1 fold
- sPLA2 mRNA expression level (sPLA2 gene transcript; [3]): significantly inhibited; also recorded: significantly suppressed
- decrease of sPLA2 mRNA expression (sPLA2 gene transcript; [4]): > 1 fold
- TIMP-1 mRNA expression level (TIMP-1 gene transcript): significantly suppressed
- MMP-1 mRNA expression level (MMP-1 gene transcript; [3]): significantly inhibited; also recorded: significantly suppressed
- decrease of MMP-1 mRNA expression (MMP-1 gene transcript; [4]): > 1 fold
- MMP-2 mRNA expression level (MMP-2 gene transcript; [3]): significantly inhibited; also recorded: significantly suppressed
- decrease of MMP-2 mRNA expression (MMP-2 gene transcript; [4]): > 1 fold
- TIMP-2 gene expression (TIMP-2 gene): significantly inhibited
